Test results published in patent US9713591B2, “Composition of matter comprising liposomes embedded in a polymeric matrix and methods of using same” (Yissum Research Development Company of the Hebrew …, priority 2008, dated 2017).
“And” between values parts separate entries of the source, which are not always exact repeats. Equal values may be shown once. Where a name gives a salt, the structure may show the parent alone.

How the values were obtained:
[1] = Free (non liposomal) and total bupivacaine determination by HPLC (% free BUP in the preparation); format: physicochemical; conditions: Example 2 samples
Protocol: Bupivacaine determination: free (non liposomal) or total (liposomal plus free) concentration of bupivacaine was measured by HPLC (Grant et al Parm. Res., 2001 18, N3, 336-343; Anesthesiology, 2004, 101, 133-137).
Drug/lipid ratio determination for hydrogel beads: The washed beads were injected through a 25G×⅝″ (0.5 mm×16 mm) syringe needle to have homogenous dispersion and were diluted ×10 with saline: • 50 μl and 100 μl used for PL. determination. • 100 μl centrifuged 10′ 2000 g at 4° C. and the supernatant diluted ×10 with isopropanol (IPA) to determine free bupivacaine. • 100 or 200 μl heated in boiling water, than centrifuged 10′ at 2000 g. The supernatant was diluted ×10 with IPA to determine total bupivacaine by HPLC.
All samples for bupivacaine determination were centrifuged for 2 min. at 5000 g (using Eppendof centrifuge) after dilution in IPA. The upper phase was removed and analyzed by HPLC.
All liposomal formulations were analyzed for free non liposomal BUP and total BUP before the in vivo experiment followed by their concentration to reach the level of 2% (w/w) BUP (for liposome formulations #1, 2, 3, 5, 6, 8) and to 1% (w/w BUP for liposome formulations #4 & 7). BUP was loaded into the liposomes either by active loading (CA or AS gradient) or by passive loading as described in Table 8.
Free Bup (Non Liposomal Bup) Determination: […]

male Swiss-Webster mice [2] = test: Analgesic efficacy in mouse model: electrical stimulation of abdominal skin, vocalization threshold, analgesia score and duration; format: in vivo; parameters: key to analgesia score, 15 min / analgesia score, 30 min / analgesia score, 45 min / analgesia score, 60 min / analgesia score, 75 min / analgesia score, 90 min / analgesia score, 105 min / analgesia score, 120 min / analgesia score, 135 min: 1 = analgesia; 0 = no analgesia; 10 = partial analgesia; key to analgesia score 150′ / analgesia score 5′ / analgesia score 30′ / analgesia score 60′ / analgesia score 75′ / analgesia score 90′ / analgesia score 105′ / analgesia score 120′ / analgesia score 135′: If the anesthesia was complete the numeric value given was 1.0; when analgesia was partial (incomplete) it received the numeric value of 10.0 in the Table 1 and in other Tables a score of 0.5; for no anesthesia the numeric score was 0
Excerpt: Analgesic efficacy in male Swiss Webster mouse model: Testing for analgesia was done by electrical stimulation of mice skin as described elsewhere (G. J. Grant et al, Pharmaceutical Research, 18, no 3, 336-343, 2001). Pain as electrical stimulation at the desired intensity was inflicted to the skin of shaved mice abdomen. The current generator (model S48, Grass Instruments (W. Warwick, R.I. USA) was used. Mice (male Swiss-Webster, 26±3 gr (n=7 per group) were used. The mice were shaved the hair overlying the abdomen and tested prior to injection to determine the Individual vocalization threshold of each mice. Than the mice were injected with (0.3-0.4 ml of one of the following: free bupivacaine, or LMVV-BUP or various LMVV entrapped in Ca-alginate or chitosan-oxalate cross linked hydrogels through 30G needle. The analgesia duration was than followed as specified in the experiment itself. All experiments were approved and ratified by the HUJI ethic committee.
Analysis of the in vivo mice analgesia: A numerical score to the spreadsheet was introduced for the evaluation of the analgesic effect of various liposome preparations performance in vivo: For each time period (e.g. 4 hrs, 8 hrs etc) a numeric value to each mouse in the experiment was given. If the anesthesia was complete the numeric value given was 1.0; when analgesia was partial (incomplete) it received the numeric value of 10.0 in the Table 1 and in other Tables a score of 0.5 and for no anesthesia the numeric score was 0. The mean for each subgroup was calculated separately (i.e. 1% 300 μl, 2%[…]).
Testing for analgesia was done by electrical stimulation of the skin directly overlying the abdomen at the site of injection using a current generator (model S48, Grass Instruments) as described in Grant et al 2001. (G. J. Grant et al, pharmaceutical research, vol 18, no 3, 336-343, 2001), and in Methods above.
Mice (male Swiss-Webster 26±3 gr) were tested prior to injection to determine the vocalization threshold than were injected with liposomal BUP or free BUP than followed by determination of analgesia duration (The duration of the main in vivo screening study was 2 days and started after a preliminary study using two different injection volumes of formulation #4 (referred to as the PILOT in Table 9A) was performed. […]
Testing for analgesia was performed by electrical stimulation of mice skin as described elsewhere (G. J. Grant et al, Pharmaceutical Research, 18, no 3, 336-343, 2001). Pain by electrical stimulation at the desired intensity was applied to the skin of shaved mice abdomen. The current generator (model S48, Grass Instruments (W. Warwick, R.I. USA) was used. Mice (male Swiss-Webster, 26±3 gr (n=8 per group) were used. The mice were shaved the hair overlying the abdomen and tested prior to injection to determine the Individual vocalization threshold of each mice. Than the mice were injected through 30G needle with 0.25 ml of one of the following formulation: • 1—Alginate beads containing LMVV-BUP (010609), were stored at 4 c for 2 months in 0.5% bup, PH=5.5 (see B3). The external solution of the beads were removed before injection without washing them. • 2—Alginate beads containing LMVV-BUP (010609), were stored at 4 c for 2 months in 2% bup, PH=5.5 (see B3). The external solution of the beads were removed and the beads washed (2.5 ml saline×5) before injection. • 3—Alginate beads containing LMVV-BUP (010609), were stored at 4 c for 2 months in 1% bup, PH=5.5 (see B3). The external solution of the beads were removed before injection without washing them. • 4—Alginate beads containing LMVV-BUP (010609), were stored at 4 c for 2 months in saline, PH=5.5 (see B3). The external solution of the beads were removed before injection without washing them. • 5—LMVV-BUP (010609) were stored at 4 c for 2 months in saline PH=5.5. • 6—BLANK: Aginate beads containing LMVV without bup, were stored at 4 c for 2 months in saline PH=5.5. […]

male Swiss-Webster mice [3] = conditions: previously determined (Grant et al. 2004, U.S. Pat. No. 6,162,462); cited from earlier work
[4] = cited from earlier work
[5] = Bup Conc 0.25%, Volume 150 ul, 0.375 mg Bup, individual mice
[6] = Bup Conc 0.25%, Volume 150 ul, 0.375 mg Bup, individual mice, hydrochloride
[7] = Bup Conc 0.25%, Volume 300 ul, 0.75 mg Bup, individual mice
[8] = Bup Conc 0.25%, Volume 300 ul, 0.75 mg Bup, individual mice, hydrochloride
[9] = Bup Conc 0.50%, Volume 150 ul, 0.75 mg Bup, individual mice
[10] = Bup Conc 0.50%, Volume 150 ul, 0.75 mg Bup, individual mice, hydrochloride

## CCCCN1CCCCC1C(=O)Nc1c(C)cccc1C (stereo not shown) [compound 9]
[1]; analyzed after the experiment was finished
  Free bup concentration(%) after injection through G31 syringe needle: 0.25%
[1]; analyzed before starting the experiment
  Free bup concentration(%) after injection through G31 syringe needle: 0.25%
Male Swiss-Webster mice [2]; Example 2, mice
  analgesia duration, comparison of Example 2 formulations: shortest analgesia duration
Male Swiss-Webster mice [2]; Example 2 group 9, per mouse, 0.25% bup 300 ul, 5 min
  analgesia score 5′: 1
Male Swiss-Webster mice [2]; Example 2 group 9, per mouse, 0.25% bup 300 ul, 30 min
  analgesia score 30′: 1
Male Swiss-Webster mice [2]; Example 2 group 9, per mouse, 0.25% bup 300 ul, 60 min
  analgesia score 60′: 1
Male Swiss-Webster mice [2]; Example 2 group 9, per mouse, 0.25% bup 300 ul, 75 min, listed as standard free bupivacaine
  analgesia score 75′: 1 (3×) and 0 (2×)
Male Swiss-Webster mice [2]; Example 2 group 9, per mouse, 0.25% bup 300 ul, 90 min, listed as standard free bupivacaine
  analgesia score 90′: 1 (3×) and 0 (2×)
Male Swiss-Webster mice [2]; Example 2 group 9, per mouse, 0.25% bup 300 ul, 105 min, listed as standard free bupivacaine
  analgesia score 105′: 1 and 0 (2×)
Male Swiss-Webster mice [2]; Example 2 group 9, per mouse, 0.25% bup 300 ul, 120 min, listed as standard free bupivacaine
  analgesia score 120′: 0.5 and 0 (2×)
Male Swiss-Webster mice [2]; Example 2 group 9, per mouse, 0.25% bup 300 ul, 135 min
  analgesia score 135′: 0
Male Swiss-Webster mice [2]; Example 2 group 9, per mouse, 0.25% bup 300 ul, 150 min
  analgesia score 150′: 0

## CCCCN1CCCCC1C(=O)Nc1c(C)cccc1C (stereo not shown) [Standard Bupivacaine, Bupivacaine hydrochloride]
Male Swiss-Webster mice [2]; [5]
  analgesia score, 15 min: 1
  analgesia score, 30 min: 1
  analgesia score, 45 min: 1
  analgesia score, 90 min: 0
Male Swiss-Webster mice [2]; [6]
  analgesia score, 60 min: 0 (5×) and 1 (2×) and 10
  analgesia score, 75 min: 0 (7×) and 10
Male Swiss-Webster mice [2]; [7]
  analgesia score, 15 min: 1
  analgesia score, 30 min: 1
  analgesia score, 45 min: 1
  analgesia score, 60 min: 1
  analgesia score, 135 min: 0
Male Swiss-Webster mice [2]; [8]
  analgesia score, 75 min: 0 and 1 (7×)
  analgesia score, 90 min: 0 and 1 (5×) and 10 (2×)
  analgesia score, 105 min: 0 (5×) and 10 and 1 (2×)
  analgesia score, 120 min: 0 (7×) and 10
Male Swiss-Webster mice [2]; [9]
  analgesia score, 15 min: 1
  analgesia score, 30 min: 1
  analgesia score, 45 min: 1
  analgesia score, 105 min: 0
Male Swiss-Webster mice [2]; [10]
  analgesia score, 60 min: 1 (7×) and 10
  analgesia score, 75 min: 1 (6×) and 0 and 10
  analgesia score, 90 min: 0 (4×) and 10 (2×) and 1 (2×)
Male Swiss-Webster mice [2]; per mouse, free BUP 0.25%, 150 ul, 0.375 mg Bup, 15 min
  analgesia score, 15 min: 1
Male Swiss-Webster mice [2]; per mouse, free BUP 0.25%, 150 ul, 0.375 mg Bup, 30 min
  analgesia score, 30 min: 1
Male Swiss-Webster mice [2]; per mouse, free BUP 0.25%, 150 ul, 0.375 mg Bup, 45 min
  analgesia score, 45 min: 1
Male Swiss-Webster mice [2]; per mouse, free BUP 0.25%, 150 ul, 0.375 mg Bup, 60 min, hydrochloride
  analgesia score, 60 min: 0 (5×) and 1 (2×) and 10
Male Swiss-Webster mice [2]; per mouse, free BUP 0.25%, 150 ul, 0.375 mg Bup, 75 min, hydrochloride
  analgesia score, 75 min: 0 (7×) and 10
Male Swiss-Webster mice [2]; per mouse, free BUP 0.25%, 150 ul, 0.375 mg Bup, 90 min
  analgesia score, 90 min: 0
Male Swiss-Webster mice [2]; per mouse, free BUP 0.25%, 300 ul, 0.75 mg Bup, 15 min
  analgesia score, 15 min: 1
Male Swiss-Webster mice [2]; per mouse, free BUP 0.25%, 300 ul, 0.75 mg Bup, 30 min
  analgesia score, 30 min: 1
Male Swiss-Webster mice [2]; per mouse, free BUP 0.25%, 300 ul, 0.75 mg Bup, 45 min
  analgesia score, 45 min: 1
Male Swiss-Webster mice [2]; per mouse, free BUP 0.25%, 300 ul, 0.75 mg Bup, 60 min
  analgesia score, 60 min: 1
Male Swiss-Webster mice [2]; per mouse, free BUP 0.25%, 300 ul, 0.75 mg Bup, 75 min, hydrochloride
  analgesia score, 75 min: 0 and 1 (7×)
Male Swiss-Webster mice [2]; per mouse, free BUP 0.25%, 300 ul, 0.75 mg Bup, 90 min, hydrochloride
  analgesia score, 90 min: 0 and 1 (5×) and 10 (2×)
Male Swiss-Webster mice [2]; per mouse, free BUP 0.25%, 300 ul, 0.75 mg Bup, 105 min, hydrochloride
  analgesia score, 105 min: 0 (5×) and 10 and 1 (2×)
Male Swiss-Webster mice [2]; per mouse, free BUP 0.25%, 300 ul, 0.75 mg Bup, 120 min, hydrochloride
  analgesia score, 120 min: 0 (7×) and 10
Male Swiss-Webster mice [2]; per mouse, free BUP 0.25%, 300 ul, 0.75 mg Bup, 135 min
  analgesia score, 135 min: 0
Male Swiss-Webster mice [2]; per mouse, free BUP 0.50%, 150 ul, 0.75 mg Bup, 15 min
  analgesia score, 15 min: 1
Male Swiss-Webster mice [2]; per mouse, free BUP 0.50%, 150 ul, 0.75 mg Bup, 30 min
  analgesia score, 30 min: 1
Male Swiss-Webster mice [2]; per mouse, free BUP 0.50%, 150 ul, 0.75 mg Bup, 45 min
  analgesia score, 45 min: 1
Male Swiss-Webster mice [2]; per mouse, free BUP 0.50%, 150 ul, 0.75 mg Bup, 60 min, hydrochloride
  analgesia score, 60 min: 1 (7×) and 10
Male Swiss-Webster mice [2]; per mouse, free BUP 0.50%, 150 ul, 0.75 mg Bup, 75 min, hydrochloride
  analgesia score, 75 min: 1 (6×) and 0 and 10
Male Swiss-Webster mice [2]; per mouse, free BUP 0.50%, 150 ul, 0.75 mg Bup, 90 min, hydrochloride
  analgesia score, 90 min: 0 (4×) and 10 (2×) and 1 (2×)
Male Swiss-Webster mice [2]; per mouse, free BUP 0.50%, 150 ul, 0.75 mg Bup, 105 min
  analgesia score, 105 min: 0
Male Swiss-Webster mice [3]
  duration of analgesic effect post injection: approximately 75 minutes
[4]; 25° C., pH 5.5
  solubility limit of bupivacaine at pH 5.5: below 2.9%
[4]; pH 2.0
  solubility of bupivacaine 25° C. at pH 2.0: 7.5%
[4]; pH 5
  mass solubility of bupivacaine at 25° C. in pH 5: 2.9%
[4]; pH 6
  mass solubility of bupivacaine at 25° C. in pH 6: 0.55%
